# Data published in US9963445B2, “Chemical compounds” (SYNGENTA PARTICIPATIONS AG, priority 2013, dated 2018).
# Experiments:
# Type in all cases: in vivo
# Abutilon theophrasti [1] = test: Pre-emergence herbicidal activity, glasshouse pot test; details: pre-emergence spray, rate 1000 g/ha, evaluated after 13 days, scale 0-5
# Description: (§1) Seeds of a variety of test species were sown in standard soil in pots. After cultivation for one day (pre-emergence) under controlled conditions in a glasshouse (at 24/16° C., day/night; 14 hours light; 65% humidity), the plants were sprayed with an aqueous spray solution derived from the formulation of the technical active ingredient in acetone/water (50:50) solution containing 0.5% Tween 20 (polyoxyethelyene sorbitan monolaurate, CAS RN 9005-64-5). The test plants were then grown in a glasshouse under controlled conditions (at 24/16° C., day/night; 14 hours light; 65% humidity) and watered twice daily. After 13 days, the test was evaluated (5=total damage to plant; 0=no damage to plant).
# (§2) ABUTH=Abutilon theophrasti; SOLNI=Solanum nigrum; AMARE=Amaranthus retroflexus; SETFA=Setaria faberi; ALOMY=Alopecurus myosuroides; ECHCG=Echinochloa crus-galli, ZEAMX=zea mays.
# Alopecurus myosuroides [2] = test: as above; details: pre-emergence spray, rate 1000 g/ha, evaluated after 13 days, scale 0-5
# Description: as §1, §2
# Echinochloa crus-galli [3] = test: as above; details: pre-emergence spray, rate 1000 g/ha, evaluated after 13 days, scale 0-5
# Description: as §1, §2
# Setaria faberi [4] = test: as above; details: pre-emergence spray, rate 1000 g/ha, evaluated after 13 days, scale 0-5
# Description: as §1, §2
# zea mays [5] = test: as above; details: pre-emergence spray, rate 1000 g/ha, evaluated after 13 days, scale 0-5
# Description: as §1, §2
# Amaranthus retroflexus [6] = test: as above; details: pre-emergence spray, rate 1000 g/ha, evaluated after 13 days, scale 0-5
# Description: as §1, §2
# Abutilon theophrasti [7] = test: Post-emergence herbicidal activity, glasshouse pot test; design: key: 0 = no damage to plant, 5 = total damage to plant; details: Application post-emergence, rate 1000 g/ha, evaluated after 13 days
# Description: (§3) Seeds of a variety of test species were sown in standard soil in pots. After 8 days cultivation (post-emergence) under controlled conditions in a glasshouse (at 24/16° C., day/night; 14 hours light; 65% humidity), the plants were sprayed with an aqueous spray solution derived from the formulation of the technical active ingredient in acetone/water (50:50) solution containing 0.5% Tween 20 (polyoxyethelyene sorbitan monolaurate, CAS RN 9005-64-5). The test plants were then grown in a glasshouse under controlled conditions (at 24/16° C., day/night; 14 hours light; 65% humidity) and watered twice daily. After 13 days, the test was evaluated (5=total damage to plant; 0=no damage to plant).
# as §2
# Alopecurus myosuroides [8] = test: as above; design: key: 0 = no damage to plant, 5 = total damage to plant; details: Application post-emergence, rate 1000 g/ha, evaluated after 13 days
# Description: as §3, §2
# Amaranthus retroflexus [9] = test: as above; design: key: 0 = no damage to plant, 5 = total damage to plant; details: Application post-emergence, rate 1000 g/ha, evaluated after 13 days
# Description: as §3, §2
# Echinochloa crus-galli [10] = test: as above; design: key: 0 = no damage to plant, 5 = total damage to plant; details: Application post-emergence, rate 1000 g/ha, evaluated after 13 days
# Description: as §3, §2
# Setaria faberi [11] = test: as above; design: key: 0 = no damage to plant, 5 = total damage to plant; details: Application post-emergence, rate 1000 g/ha, evaluated after 13 days
# Description: as §3, §2
# zea mays [12] = test: as above; design: key: 0 = no damage to plant, 5 = total damage to plant; details: Application post-emergence, rate 1000 g/ha, evaluated after 13 days
# Description: as §3, §2
Compound,"ABUTH damage score, application pre-emergence (Abutilon theophrasti [1])","ALOMY damage score, application pre-emergence (Alopecurus myosuroides [2])","ECHCG damage score, application pre-emergence (Echinochloa crus-galli [3])","SETFA damage score, application pre-emergence (Setaria faberi [4])","ZEAMX damage score, application pre-emergence (zea mays [5])","AMARE damage score, application pre-emergence (Amaranthus retroflexus [6])",ABUTH herbicidal damage score (Abutilon theophrasti [7]),ALOMY herbicidal damage score (Alopecurus myosuroides [8]),AMARE herbicidal damage score (Amaranthus retroflexus [9]),ECHCG herbicidal damage score (Echinochloa crus-galli [10]),SETFA herbicidal damage score (Setaria faberi [11]),ZEAMX herbicidal damage score (zea mays [12])
1-(6-chloropyrimidin-4-yl)-2-hydroxy-4-methoxy-3-methyl-2H-pyrrol-5-one [CI2],1,2,4,4,1,–,–,–,–,–,–,–
4-chloro-2-hydroxy-1-[5-iodo-4-(trifluoromethyl)-2-pyridyl]-3-methyl-2H-pyrrol-5-one [AF76],4,3,4,5,1,5,5,5,5,5,5,1
4-chloro-2-hydroxy-3-methyl-1-[4-(trifluoromethyl)-5-vinyl-2-pyridyl]-2H-pyrrol-5-one [AF18],5,4,5,4,2,5,5,5,5,5,5,2
"CC1=C(Cl)C(=O)N(c2cc(C(F)(F)F)c(Br)cn2)C1O (stereo not drawn) [AF57, 1-[5-bromo-4-(trifluoromethyl)-2-pyridyl]-4-chloro-2-hydroxy-3-methyl-2H-pyrrol-5-one]",1,3,0,0,0,–,5,5,5,5,5,3
CC1=C(Cl)C(=O)N(c2cc(C(F)(F)F)c(-c3ccc(Cl)cc3)cn2)C1O (stereo not drawn) [AF90],0,–,0,3,0,2,4,–,5,–,5,–
COC1=C(C)C(O)N(c2cc(Cl)c(C(=O)NC(C)(C)C)cn2)C1=O (stereo not drawn) [AI18],–,4,5,5,–,5,5,5,5,5,5,4
COC(=O)c1cnc(N2C(=O)C(OC)=C(C)C2O)cc1Cl (stereo not drawn) [AI21],–,0,0,0,–,5,5,1,5,3,4,1
COC1=C(C)C(O)N(c2cc(C(C)C)c(C(=O)NC(C)(C)C)cn2)C1=O (stereo not drawn) [AI30],5,–,–,–,–,5,5,–,5,5,5,–
COC1=C(C)C(O)N(c2cc(C)c(C(=O)NC(C)(C)C)cn2)C1=O (stereo not drawn) [AI33],–,4,4,5,–,5,5,5,5,5,5,4
